Test results: patent publication US20170197935A1, “INHIBITORS OF DNA GYRASE FOR THE TREATMENT OF BACTERIAL INFECTIONS” (Vitas Pharma Research Private Limited, priority 2012, published 2017)
Converted amounts (≈) assume the structure as drawn. Read-outs that look alike come from different tables or passages of the source.

Assays:
Type in all cases: cell-based
[1] = tested on: Methicillin resistant Staphylococcus aureus (ATCC 33591); assay: MIC by microbroth dilution, MRSA ATCC 33591
Method: (§1) Shown below are the microbiological activities of representative compounds of Formula I of the invention. The compounds were tested by the microbroth dilution method (National committee for Clinical Laboratory Standards, 2011, M07-08) and the Minimum Inhibitory Concentration (MIC) was determined.
(§2) Analysis of microbiological activity of compounds shown below are the microbiological activities of representative compounds of Formula II of the invention. The compounds were tested by the microbroth dilution method as per the reference in Example 1.

E. coli (ATCC 25922) = assay: MIC by microbroth dilution, E. coli ATCC 25922; details: Escherichia coli
Method: as §1, §2

[2] = tested on: Staphylococcus aureus (ATCC 29213); assay: MIC by microbroth dilution, Staphylococcus aureus ATCC 29213; details: ATCC29213
Method: (§3) Shown below are the microbiological activities of representative compounds of Formula I of the invention. The compounds were tested by the microbroth dilution method (National committee for Clinical Laboratory Standards, 2011, […]-08) and the Minimum Inhibitory Concentration (MIC) was determined.

[3] = tested on: Streptococcus pneumoniae (ATCC 6301); assay: MIC by microbroth dilution, Streptococcus pneumoniae ATCC 6301; details: ATCC6301
Method: as §3

[4] = tested on: Enterococcus faecalis (ATCC 29212); assay: MIC by microbroth dilution, Enterococcus faecalis ATCC 29212; details: ATCC29212
Method: as §3

[5] = tested on: Moraxella catarrhalis (ATCC 8176); assay: MIC by microbroth dilution, Moraxella catarrhalis ATCC 8176; details: ATCC8176
Method: as §3

[6] = tested on: K. pneumoniae (ATCC 700603); assay: MIC by microbroth dilution, K. pneumoniae ATCC 700603; details: Klebsiella pneumoniae, ATCC700603, Formula I compounds
Method: as §1, §2

[7] = Formula II compounds, read-out: Minimum Inhibitory Concentration (MIC) MRSA ATCC 33591
[8] = ATCC25922, Formula II compounds, read-out: Minimum Inhibitory Concentration (MIC) E. coli ATCC 25922
[9] = ATCC33591, Formula I compounds, read-out: MIC Methicillin resistant Staphylococcus aureus (ATCC 33591)
[10] = ATCC25922, Formula I compounds, read-out: MIC E. coli (ATCC 25922)

SMILES	MIC [1, 7] [µg/mL]	MIC (E. coli (ATCC 25922); [8]) [µg/mL]	MIC [2] [µg/mL]	MIC [1, 9] [µg/mL]	MIC (E. coli (ATCC 25922); [10]) [µg/mL]	MIC [6] [µg/mL]	MIC [3] [µg/mL]	MIC [4] [µg/mL]	MIC [5] [µg/mL]
COc1ccc2ncc(=O)n(CCN3CCC(NCc4ccc(C)c([N+](=O)[O-])c4)CC3)c2n1 [VT-03-00125]	> 4	32 (≈ 70.7 µM)							
COc1ccc2ncc(C#N)c(CCN3[C@@H]4CC[C@H]3CC(NCc3cc5c(c([N+](=O)[O-])c3)OCO5)C4)c2c1 (some centres unmarked) [VT-03-00070]			> 4	> 4	> 4				
COc1ccc2ncc(C#N)c(CCN3C4CCC3CC(NCc3ccc5c(c3)NC(=O)CS5)C4)c2c1 (centres unmarked) [VT-03-00026]			2 (≈ 3.89 µM)	4 (≈ 7.79 µM)	32 (≈ 62.3 µM)	64 (≈ 125 µM)	1 (≈ 1.95 µM)	8 (≈ 15.6 µM)	2 (≈ 3.89 µM)
COc1ccc2ncc(C#N)c(CCN3C4CCC3CC(NS(=O)(=O)c3ccccc3C)C4)c2c1 (centres unmarked) [VT-03-00017]			> 32	> 32	> 32		> 16	> 64	> 16
COc1ccc2ncc(C#N)c(CCN3C4CCC3CC(NCc3ccc5c(c3)NCCS5)C4)c2c1 (centres unmarked) [VT-03-00026a]			1 (≈ 2 µM)	2 (≈ 4 µM)	16 (≈ 32 µM)		2 (≈ 4 µM)	8 (≈ 16 µM)	4 (≈ 8.01 µM)
Cc1ccc(CNC2CCN(CCn3c(=O)cnc4ccc(C(=O)O)cc43)CC2)cc1[N+](=O)[O-] [VT-03-00124]		2 (≈ 4.3 µM)							
COc1ccc2ncc(C#N)c(CCN3C4CCC3CC(NS(=O)(=O)c3ccc5ccccc5c3)C4)c2c1 (centres unmarked) [VT-03-00022]			1 (≈ 1.9 µM)	2 (≈ 3.8 µM)	> 64		2 (≈ 3.8 µM)	4 (≈ 7.6 µM)	4 (≈ 7.6 µM)
COc1ccc2ncc(C#N)c(CCN3C4CCC3CC(NS(=O)(=O)c3ccc5c(c3)OCCO5)C4)c2c1 (centres unmarked) [VT-03-00021]			0.25 (≈ 0.468 µM)	0.12 (≈ 0.224 µM)	16 (≈ 29.9 µM)	> 32	1 (≈ 1.87 µM)	2 (≈ 3.74 µM)	2 (≈ 3.74 µM)
COc1ccc2ncc(C#N)c(CCN3C4CCC3CC(NCc3ccc5c(c3)NC(=O)CO5)C4)c2c1 (centres unmarked) [VT-03-00030]			2 (≈ 4.02 µM)	4 (≈ 8.04 µM)	8 (≈ 16.1 µM)	> 32	4 (≈ 8.04 µM)	4 (≈ 8.04 µM)	1 (≈ 2.01 µM)
COc1ccc2ncc(C#N)c(CCN3C4CCC3CC(NCc3ccc5c(c3)OCCO5)C4)c2c1 (centres unmarked) [VT-03-00021a]			≤ 0.03	0.06 (≈ 0.124 µM)	16 (≈ 33 µM)		0.12 (≈ 0.248 µM)	2 (≈ 4.13 µM)	2 (≈ 4.13 µM)
COc1ccc2ncc(C#N)c(CCN3[C@@H]4CC[C@H]3CC(NCc3ccc(C)c([N+](=O)[O-])c3)C4)c2c1 (some centres unmarked) [VT-03-00069]			> 4	> 4	> 4				
COc1ccc2ncc(C#N)c(CCN3C4CCC3CC(NCc3cc5c(cn3)OCCO5)C4)c2c1 (centres unmarked) [VT-03-00027]			2 (≈ 4.12 µM)	4 (≈ 8.24 µM)	> 32		2 (≈ 4.12 µM)	4 (≈ 8.24 µM)	8 (≈ 16.5 µM)
COc1ccc2ncc(C#N)c(CCN3C4CCC3CC(NC(=O)c3ccc5c(c3)OCCO5)C4)c2c1 (centres unmarked) [VT-03-00024]			1 (≈ 2.01 µM)	2 (≈ 4.01 µM)	> 32		2 (≈ 4.01 µM)	8 (≈ 16 µM)	8 (≈ 16 µM)
COc1ccc2ncc(C#N)c(CCN3[C@@H]4CC[C@H]3CC(NCc3ccc([N+](=O)[O-])s3)C4)c2c1 (some centres unmarked) [VT-03-00074]			1 (≈ 2.09 µM)	2 (≈ 4.19 µM)	32 (≈ 67 µM)		2 (≈ 4.19 µM)	8 (≈ 16.8 µM)	2 (≈ 4.19 µM)
COc1ccc2ncc(C#N)c(CCN3CCC(NCc4ccc([N+](=O)[O-])cn4)CC3)c2c1 [VT-03-00081]				1 (≈ 2.24 µM)	> 32				
COc1ccc2c(c1)c(CCN1CCC(NCc3ccc4c(c3)NC(=O)CO4)CC1)c(C#N)c(=O)n2C [VT-03-00042]			> 16	> 16	> 32				
COc1ccc2c(c1)c(CCN1CCC(NCc3ccc4c(c3)OCCO4)CC1)c(C#N)c(=O)n2C [VT-03-00043]			16 (≈ 32.7 µM)	> 16	> 32				
COc1ccc2ncc(C#N)c(CCN3CCC(NCc4ccc(O)c(OC)c4)CC3)c2c1 [VT-03-00046]			16 (≈ 35.8 µM)	> 16	> 32				

Second part, led by results:

MIC [1, 7] [µg/mL]	MIC (E. coli (ATCC 25922); [8]) [µg/mL]	MIC [2] [µg/mL]	MIC [1, 9] [µg/mL]	MIC (E. coli (ATCC 25922); [10]) [µg/mL]	MIC [6] [µg/mL]	SMILES	MIC [3] [µg/mL]	MIC [4] [µg/mL]	MIC [5] [µg/mL]
		0.12 (≈ 0.269 µM)	0.5 (≈ 1.12 µM)	32 (≈ 71.8 µM)	> 32	COc1ccc2ncc(C#N)c(CCN3CCC(NCc4cccc([N+](=O)[O-])c4)CC3)c2c1 [VT-03-00049]	0.5 (≈ 1.12 µM)	2 (≈ 4.49 µM)	8 (≈ 18 µM)
		2 (≈ 4.12 µM)	4 (≈ 8.24 µM)	> 32	> 32	COc1ccc2ncc(C#N)c(N3CC(N4CCC(NCc5ccc6c(c5)OCCO6)CC4)C3)c2c1 [VT-03-00032]	4 (≈ 8.24 µM)	8 (≈ 16.5 µM)	8 (≈ 16.5 µM)
0.125 (≈ 0.296 µM)	2 (≈ 4.73 µM)					CCc1ccc2ncc(=O)n(CCN3CCC(NCc4ccc(C)c(F)c4)CC3)c2c1 [VT-03-00112]			
		> 4	> 4	> 4		COc1ccc2ncc(C#N)c(CCN3CCC(NCc4cc([N+](=O)[O-])c(C)cc4C)CC3)c2c1 [VT-03-00072]			
		2 (≈ 4.59 µM)	4 (≈ 9.19 µM)	> 32	> 16	COc1ccc2ncc(C#N)c(CCN3CCC(NCc4ccc([N+](=O)[O-])o4)CC3)c2c1 [VT-03-00051]	> 4	4 (≈ 9.19 µM)	2 (≈ 4.59 µM)
	8 (≈ 17.1 µM)					COc1ccc2ncc(=O)n(CCN3CC[C@H](NCc4ccc(C)c([N+](=O)[O-])c4)[C@@H](O)C3)c2c1 [VT-03-00135]			
		0.5 (≈ 1.12 µM)	0.5 (≈ 1.12 µM)	8 (≈ 18 µM)		COc1ccc2ncc(C#N)c(CCN3CC(CNCc4ccc(C)c([N+](=O)[O-])c4)C3)c2c1 [VT-03-00084]	0.25 (≈ 0.561 µM)	2 (≈ 4.49 µM)	2 (≈ 4.49 µM)
		0.12 (≈ 0.266 µM)	0.5 (≈ 1.11 µM)	16 (≈ 35.4 µM)	32 (≈ 70.9 µM)	COc1ccc2ncc(=O)n(CCN3CCC(NCc4ccc([N+](=O)[O-])c(C)c4)CC3)c2c1 [VT-03-00067]	0.25 (≈ 0.554 µM)		2 (≈ 4.43 µM)
		> 4	> 4	> 32		COc1ccc2ncc(C#N)c(CCN3CCC(NCc4cc(OC)c(O)c([N+](=O)[O-])c4)CC3)c2c1 [VT-03-00060]			> 32
		0.25 (≈ 0.552 µM)	1 (≈ 2.21 µM)	32 (≈ 70.7 µM)		COc1ccc2ncc(C#N)c(CCN3CCC(NCc4csc([N+](=O)[O-])n4)CC3)c2c1 [VT-03-00080]	2 (≈ 4.42 µM)	4 (≈ 8.84 µM)	> 4
		> 4		> 32		COc1ccc2ncc(C#N)c(CCN3CCC(NCc4ncc([N+](=O)[O-])[nH]4)CC3)c2c1 [VT-03-00078]			
		0.06 (≈ 0.119 µM)	0.12 (≈ 0.239 µM)	4 (≈ 7.96 µM)		COc1ccc2ncc(C#N)c(CCN3CCC(NCc4ccc(C)c([N+](=O)[O-])c4)(C(N)=O)CC3)c2c1 [VT-03-00083]			
